In patent US20260041680A1, “METHODS OF TREATING CANCER WITH LONG-ACTING TOPOISOMERASE I INHIBITOR” (priority 2022, published 2026):
Where two headings read alike, the source gives them in different places.

Columns and labels:
[1] = tested on: H460 human lung cancer xenograft
[2] = tested on: H446 human small cell lung cancer xenograft
[3] = tested on: Panc-1 human pancreatic cancer xenograft
[4] = tested on: NCI-N87 human gastric cancer xenograft
[5] = tested on: HT-29 human colon cancer xenograft; assay: HT-29 human colon cancer xenograft, antitumor activity and tolerability; format: in vivo, nude rat
[6] = tested on: MKN45 human gastric cancer xenograft
[7] = SN-38 formed from CPT-11; evident from high SN-38G/SN-38; cited from earlier work
[8] = tested on: HCT116 human colon cancer xenograft
[9] = in vivo, po
[10] = pegamotecan; cited from earlier work
[11] = cisplatin IP 5 mg/kg once a week for 2 weeks
[12] = PLX038 200 mg/kg, irinotecan 60 mg/kg, IV once a week for 2 weeks
[13] = irinotecan 60 mg/kg IV once a week for 2 weeks
[14] = PLX038 200 mg/kg IV once a week for 2 weeks
[15] = PLX038 IV 200 mg/kg once a week for 2 weeks

Compound: N.N.[Cl][Pt][Cl] [cisplatin]
- TGI [1, 11]: 33%
- TGI [2, 11]: 36.1%

Compound: Nc1ccn([C@@H]2O[C@H](CO)[C@@H](O)C2(F)F)c(=O)n1 [gemcitabine]
- TGI ([3]; gemcitabine IP 50 mg/kg once a week for 2 weeks): 32.5%

Compound: CCc1c2c(nc3ccc(OC(=O)N4CCC(N5CCCCC5)CC4)cc13)-c1cc3c(c(=O)n1C2)COC(=O)[C@]3(O)CC [irinotecan]
- tolerability [4, 12]: well-tolerated
- TGI [4, 13]: 57.8%
- tumor growth inhibition (TGI) ([5]; irinotecan 70/50 mg/kg IV once a week for 2 weeks): 45%
- loss in body weight ([5]; irinotecan at 70 mg/kg IV (second dose lowered to 50 mg/kg)): 16%
- tolerability [6, 12]: well-tolerated
- TGI [6, 13]: 45.6%
- liver/GI exposure of SN-38 [7]: high
- tolerability [8, 12]: well tolerated
- TGI [8, 13]: 65.4%

Compound: CNCc1ccc(-c2[nH]c3cc(F)cc4c3c2CCNC4=O)cc1 [rucaparib]
- rucaparib pre-dose (trough) concentrations at steady state [9]: reasonably consistent with prior data

Compound: O-[7-(tetra-polyethylene glycol ether)-carboxamido-1-cyano-2-heptyl]-N-(10′-methoxy-7′-ethyl-camptothecin)-N-[4′-(diethylcarbamoyl)phenyl)] carbamate [PLX038]
- TGI [4, 14]: 34.4%
- TGI [3, 15]: 73.1%
- TGI [1, 15]: 30%
- tumor growth inhibition (TGI) ([5]; PLX038 50 mg/kg IV once a week for 2 weeks): 13%
- tumor growth inhibition (TGI) ([5]; PLX038 100 mg/kg IV once a week for 2 weeks): 35%
- tumor growth inhibition (TGI) [5, 14]: 61%
- TGI [2, 15]: 41.0%
- TGI [6, 14]: 59.0%
- TGI [8, 14]: 46.6%

Compound: pegamotecan
- maximum tolerated dose (MTD) [10]: 3.24 g/m^2
